The values below come from US5776914A, “Prevention of hemolysis” (The Trustees of the University of Pennsylvania, priority 1994, dated 1998).

For orientation: solubility means how much of the substance goes into solution per volume. Low values mean a poorly soluble substance, high ones a readily soluble substance.

Converted amounts (≈) assume the structure as drawn.

One series in a line: solubility limit. The series is classed as physicochemical. As to conditions: 20° C.
Series [1] has as its system erythrocytes. To be noted: cited from earlier work; for concentration above/at which hemolysis is induced: background statement; for hemolytic activity (in words): known in the art / literature.
Series [2] relates to erythrocytes. The series is described as follows: inhibition of hemolysis induced by hemolytic agents (CPZ, CD, Pr-OH-CD, clay). To be noted: for Hemolysis: 15 min.
Method: Unless explicitly stated otherwise, hemolytic activity was measured by the procedure described by I. Jodal et al., Proceedings of the Fourth International Symposium on Cyclodextrins, O. Huber and J. Szejtli, Eds., 421-425, Kluwer Academic Publishers, Boston (1988), which is incorporated herein by reference.
For each of the examples which follow, sodium citrate was added about (to about 0.47%) to fresh human blood collected from healthy laboratory personnel. After centrifugation (10 min., 400×G) to separate the erythrocytes from other blood components, the supernatant erythrocyte fraction was recentrifuged and washed twice with isotonic phosphate buffer. The erythrocytes were diluted with that buffer to a 10% hematocrit value to obtain an erythrocyte suspension. Test material and erythrocytes were mixed as follows: about 3.6, 1.8, and 0.9 ml of a test material solution was mixed with about 0.4, 0.2 and 0.1 ml, respectively, of erythrocyte suspension and then incubated for about 15 minutes each at about 37° C., followed by two centrifugations for two minutes each at about 4000×G The resulting supernatants were measured for absorbance at 543 nm using a Gilford spectrophotometer. The percent of hemolysis was determined by reference to two control samples. The first sample contained erythrocytes and isotonic saline. This first sample served as a zero blank. The second sample was identical to the first but had been sonicated to provide a value for 100% hemolysis.
Series [3] relates to erythrocytes. As to conditions: 1.0 mM β-cyclodextrin, simultaneous use (Uekama 1981); cited from earlier work.
Series [4] has as its system erythrocytes. It counts as cell-based, human. As for the experimental part:
FIG. 2 graphically illustrates the hemolytic effects of two hydroxyalkyl substituted cyclodextrins, 2-hydroxyethyl-β-cyclodextrin (β-CD-4-Et) and 2-hydroxypropyl-β-cyclodextrin (β-CD-4Pr) in comparison to the polyanionically substituted cyclodextrin β-cyclodextrin-tetradecasulfate sodium (β-CD-14s) on fresh human blood to which about 0.47% sodium citrate was added.
The first sample contained erythrocytes and isotonic saline. This first sample served as a zero blank.

A short description of the next series: in vitro. The series is classed as cell-based, human. To be noted: human, erythrocytes.
In series [5] the test system is erythrocytes. Description: in vitro. The series is classed as cell-based, human.

Molecule `OC[C@H]1O[C@@H]2O[C@H]3[C@H](O)[C@@H](O)[C@@H](O[C@H]4[C@H](O)[C@@H](O)[C@@H](O[C@H]5[C@H](O)[C@@H](O)[C@@H](O[C@H]6[C@H](O)[C@@H](O)[C@@H](O[C@H]7[C@H](O)[C@@H](O)[C@@H](O[C@H]8[C@H](O)[C@@H](O)[C@@H](O[C@H]1[C@H](O)[C@H]2O)O[C@@H]8CO)O[C@@H]7CO)O[C@@H]6CO)O[C@@H]5CO)O[C@@H]4CO)O[C@@H]3CO` [β-CD, β-cyclodextrin] gave a solubility in “solubility limit” of 13 to 18 mg/mL (≈ 11.5 to 15.9 mM). Further, the “concentration above/at which hemolysis is induced” value with erythrocytes [1] was 2000 to 3000 µM. Moreover, the Hemolysis in the series on erythrocytes [2] (CPZ 0.5 mg/ml (1.5 mM) + CD 5.0 mg/ml (4.0 mM), molar ratio CD/CPZ 2.7 (Example 20)) amounted to 6.5; in the series with erythrocytes [2] (CPZ 0.75 mg/ml (2.25 mM) + CD 7.5 mg/ml (6.0 mM), molar ratio CD/CPZ 2.7 (Example 21)), 21; in the series with erythrocytes [2] (CPZ 1.0 mg/ml (3.0 mM) + CD 10 mg/ml (8.0 mM), molar ratio CD/CPZ 2.7 (Example 22)), 80. The “protection from hemolysis by CPZ (in words)” value with erythrocytes [2] (Example 20: CPZ 0.5 mg/ml + CD 5.0 mg/ml) is listed as “considerable protection”; with erythrocytes [2] (Examples 21 and 22: CPZ 0.75-1.0 mg/ml + CD 7.5-10 mg/ml) it was “protection is lost”. Further, the “inhibition of hemolytic action of chlorpromazine” value in the series on erythrocytes [3] is “inhibits the hemolytic action”. Besides, the “onset of hemolysis (concentration inducing hemolysis)” value with erythrocytes [4] (human) is given as “about 6 mg/ml”.
For the molecule `CN(C)CCCN1c2ccccc2Sc2ccc(Cl)cc21` [CPZ, chloropromazine], the “concentration above/at which hemolysis is induced” value in the series with erythrocytes [1] was over 500 µM. Further, the “hemolytic activity (in words)” value in the series with erythrocytes [1] is given as “hemolysis inducing agents”. Further, the hemolysis at 0.25 h in the series “in vitro” (0.5 mg/ml of CPZ) was about 100%; in the series “in vitro” (CPZ 0.15 mg/ml (Example 1)), 4.9%; in the series “in vitro” (CPZ 0.25 mg/ml (Example 2)), 7%; in the series “in vitro” (CPZ 0.30 mg/ml (Example 3)), 88%; in “in vitro” (CPZ 0.40 mg/ml (Example 4)) it was 96%. Further, the “hemolysis (in words)” value in the series with erythrocytes [5] (concentrations approaching 0.5 mg/ml of CPZ) is listed as “complete hemolysis”; in the series on erythrocytes [5] (without CDS, about one-fifth of 2.0 mg/ml CPZ (Example 4)), “substantially complete hemolysis”.
Turning to `C=C[C@]1(C)C[C@@H](OC(=O)CSCCN(CC)CC)[C@]2(C)[C@H](C)CC[C@]3(CCC(=O)[C@H]32)[C@@H](C)[C@@H]1O` [tiamulin], in the series with erythrocytes [1], the “hemolytic activity (in words)” value was “hemolysis inducing agents”.
For “2-hydroxyethyl-β-cyclodextrin [β-CD-4-Et]”, the “hemolytic effect (FIG. 2)” value in the series on erythrocytes [4] was “induced hemolysis at low concentrations”.
On the same count and under the same terms, the same measure for “2-hydroxypropyl-β-cyclodextrin [β-CD-4Pr]”: “induced hemolysis at low concentrations”.
“β-cyclodextrin-tetradecasulfate sodium [β-CD-14s]”: the “reduction of the level of hemolysis” value in the series on erythrocytes [2] (CD about 15 mg/ml, β-CD-14s 50 mg/ml) is “about 41%”. For the same molecule, the “fold reduction of hemolysis” value with erythrocytes [2] (CD about 15 mg/ml, β-CD-14s 150 mg/ml) was “about 30 fold”. Further, in the series on erythrocytes [2] (Example 23: CPZ 1.0 mg/ml + 50 mg/ml CDS), the “hemolytic activity of the composition with CPZ (in words)” value is recorded as “substantially reduced hemolytic activity”. For the same molecule, in the series on erythrocytes [2] (about 70 mg/ml CDS, about 2.0 mg/ml CPZ), the “hemolytic effect (in words)” value was “negligible hemolytic effect”. For the same molecule, the “fold improvement, that is, reduction in hemolysis” value in the series with erythrocytes [2] (hydroxypropyl cyclodextrin 75 mg/ml, β-CD-14s 100 mg/ml) is “at least 20 fold”. The “hemolytic effect (FIG. 2)” value in the series on erythrocytes [4] is “no undesirable hemolytic properties”.
As for `CC(C(=O)O)c1ccc(-c2ccccc2)c(F)c1` (stereo not shown) [flurbiprofen], the “hemolytic activity (in words)” value in the series with erythrocytes [1] was “hemolysis inducing agents”.
